Laboratory results published in PubChem BioAssay (NCI).
Where “and” joins values, the source holds several entries; their conditions need not be identical. Equal entries are not always repeated.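 Abbreviation: GI50, concentration required for 50% inhibition of growth. At the TGI there is no net growth.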

Experiments:
Assay in all cases: growth of human tumour cells (NCI), 384-well format
[1] = system: OVCAR-8 ovarian
[2] = system: MCF7 breast
[3] = system: KM12 colon
[4] = system: IGROV1 ovarian
[5] = system: SNB-19 CNS
[6] = system: LOX IMVI melanoma
[7] = system: ACHN renal
[8] = system: TK-10 renal
[9] = system: HL-60(TB) leukemia
[10] = system: HT29 colon
[11] = system: MDA-MB-468 breast
[12] = system: SK-MEL-5 melanoma
[13] = system: EKVX NSCLC
[14] = system: UACC-62 melanoma
[15] = system: OVCAR-3 ovarian
[16] = system: RXF 393 renal
[17] = system: SF-295 CNS
[18] = system: OVCAR-5 ovarian
[19] = system: MOLT-4 leukemia
[20] = system: OVCAR-4 ovarian
[21] = system: HCT-116 colon
[22] = system: SK-MEL-28 melanoma
[23] = system: SN12C renal
[24] = system: NCI-H322M lung
[25] = system: M14 melanoma
[26] = system: DU-145 prostate
[27] = system: SK-OV-3 ovarian
[28] = system: HOP-62 NSCLC
[29] = system: RPMI-8226 leukemia
[30] = system: NCI/ADR-RES ovarian
[31] = system: BT-549 breast
[32] = system: PC-3 prostate
[33] = system: UACC-257 melanoma
[34] = system: CAKI-1 renal
[35] = system: HOP-92 NSCLC
[36] = system: NCI-H460 NSCLC
[37] = system: SF-268 CNS
[38] = system: NCI-H522 lung
[39] = system: MALME-3M melanoma
[40] = system: MDA-MB-231 breast
[41] = system: NCI-H226 lung
[42] = system: A498 renal
[43] = system: U251 glioblastoma
[44] = system: T-47D breast
[45] = system: NCI-H23 lung
[46] = system: SNB-75 CNS
[47] = system: SF-539 CNS
[48] = system: SR leukemia
[49] = system: HCT-15 colon
[50] = system: HCC-2998 colon
[51] = system: MDA-MB-435 melanoma
[52] = system: HS 578T breast
[53] = system: COLO 205 colon
[54] = system: A549 NSCLC
[55] = system: CCRF-CEM leukemia
[56] = system: K-562 leukemia

Question: Which GI50 [1] does the source give for `CON(C)C(=O)N1N=C(c2cc(F)ccc2F)SC1(CCCN)c1ccccc1` (configuration not stated) here?
Answer: < 0.01 µM

Question: And the TGI [1]?
Answer: 14.5 µM and 13.4 µM

Question: And the GI50 [2]?
Answer: < 0.01 µM

Question: And the TGI [2]?
Answer: 11.9 µM and 12.1 µM

Question: And the GI50 [3]?
Answer: < 0.01 µM

Question: And the TGI [3]?
Answer: 12.1 µM and 11.9 µM

Question: What about the GI50 [4] of the same compound?
Answer: 1.84 µM and 1.13 µM

Question: And the TGI [4]?
Answer: 18.8 µM and 14.7 µM

Question: What about the GI50 [5] of the same compound?
Answer: < 0.01 µM

Question: What about the TGI [5] of the same compound?
Answer: 11.7 µM and 7.12 µM

Question: What about the GI50 [6] of the same compound?
Answer: < 0.01 µM

Question: And the TGI [6]?
Answer: 10.5 µM and 11.1 µM

Question: And the GI50 [7]?
Answer: 11.2 µM and 1.63 µM

Question: What about the TGI [7] of the same compound?
Answer: 23.3 µM and 19.6 µM

Question: What about the GI50 [8] of the same compound?
Answer: 0.0117 µM

Question: And the TGI [8]?
Answer: 17.4 µM

Question: And the GI50 [9]?
Answer: < 0.01 µM

Question: What about the TGI [9] of the same compound?
Answer: < 0.01 µM

Question: What about the GI50 [10] of the same compound?
Answer: < 0.01 µM

Question: And the TGI [10]?
Answer: 1.15 µM and 1.31 µM

Question: What about the GI50 [11] of the same compound?
Answer: < 0.01 µM

Question: What about the TGI [11] of the same compound?
Answer: < 0.01 µM

Question: And the GI50 [12]?
Answer: < 0.01 µM

Question: What about the TGI [12] of the same compound?
Answer: < 0.01 µM

Question: And the GI50 [13]?
Answer: < 0.01 µM

Question: And the TGI [13]?
Answer: 15.6 µM and 14.8 µM

Question: And the GI50 [14]?
Answer: < 0.01 µM

Question: And the TGI [14]?
Answer: 16.4 µM and 16.1 µM

Question: And the GI50 [15]?
Answer: < 0.01 µM

Question: What about the TGI [15] of the same compound?
Answer: < 0.01 µM

Question: And the GI50 [16]?
Answer: < 0.01 µM

Question: And the TGI [16]?
Answer: 17.9 µM and 17.8 µM

Question: And the GI50 [17]?
Answer: < 0.01 µM

Question: And the TGI [17]?
Answer: 12.8 µM and 13.1 µM

Question: What about the GI50 [18] of the same compound?
Answer: 0.0106 µM and < 0.01 µM

Question: What about the TGI [18] of the same compound?
Answer: 0.0842 µM and < 0.01 µM

Question: What about the GI50 [19] of the same compound?
Answer: < 0.01 µM

Question: And the TGI [19]?
Answer: < 0.01 µM

Question: What about the GI50 [20] of the same compound?
Answer: < 0.01 µM

Question: What about the TGI [20] of the same compound?
Answer: 14 µM and 12.6 µM

Question: And the GI50 [21]?
Answer: < 0.01 µM

Question: What about the TGI [21] of the same compound?
Answer: 11.2 µM and 11.4 µM

Question: What about the GI50 [22] of the same compound?
Answer: 2.38 µM and 11.6 µM

Question: What about the TGI [22] of the same compound?
Answer: 19.6 µM and 24 µM

Question: And the GI50 [23]?
Answer: < 0.01 µM

Question: What about the TGI [23] of the same compound?
Answer: 14.7 µM and 16.6 µM

Question: What about the GI50 [24] of the same compound?
Answer: < 0.01 µM

Question: What about the TGI [24] of the same compound?
Answer: 17.2 µM and 14.9 µM

Question: And the GI50 [25]?
Answer: < 0.01 µM

Question: What about the TGI [25] of the same compound?
Answer: < 0.01 µM

Question: What about the GI50 [26] of the same compound?
Answer: < 0.01 µM

Question: And the TGI [26]?
Answer: < 0.01 µM

Question: And the GI50 [27]?
Answer: < 0.01 µM

Question: What about the TGI [27] of the same compound?
Answer: 12.2 µM and 11.9 µM

Question: What about the GI50 [28] of the same compound?
Answer: < 0.01 µM

Question: What about the TGI [28] of the same compound?
Answer: 14.5 µM and 13.8 µM

Question: What about the GI50 [29] of the same compound?
Answer: < 0.01 µM

Question: And the TGI [29]?
Answer: < 0.01 µM

Question: What about the GI50 [30] of the same compound?
Answer: 0.116 µM and 0.0175 µM

Question: And the TGI [30]?
Answer: 0.27 µM and 0.137 µM

Question: What about the GI50 [31] of the same compound?
Answer: < 0.01 µM

Question: What about the TGI [31] of the same compound?
Answer: 11.9 µM and 11.1 µM

Question: What about the GI50 [32] of the same compound?
Answer: < 0.01 µM

Question: What about the TGI [32] of the same compound?
Answer: 15.3 µM and 12.8 µM

Question: What about the GI50 [33] of the same compound?
Answer: < 0.01 µM

Question: And the TGI [33]?
Answer: 2.29 µM and 2.47 µM

Question: And the GI50 [34]?
Answer: 2.26 µM and 2.08 µM

Question: What about the TGI [34] of the same compound?
Answer: 19.2 µM and 19.3 µM

Question: What about the GI50 [35] of the same compound?
Answer: 10.1 µM and 8.95 µM

Question: What about the TGI [35] of the same compound?
Answer: 21.8 µM and 21.6 µM

Question: And the GI50 [36]?
Answer: < 0.01 µM

Question: What about the TGI [36] of the same compound?
Answer: < 0.01 µM

Question: And the GI50 [37]?
Answer: < 0.01 µM

Question: And the TGI [37]?
Answer: 15.7 µM and 15.3 µM

Question: What about the GI50 [38] of the same compound?
Answer: < 0.01 µM

Question: And the TGI [38]?
Answer: < 0.01 µM

Question: And the GI50 [39]?
Answer: 1.19 µM and 1.26 µM

Question: What about the TGI [39] of the same compound?
Answer: 3.53 µM and 11.8 µM

Question: And the GI50 [40]?
Answer: < 0.01 µM

Question: What about the TGI [40] of the same compound?
Answer: 13.8 µM and 15.4 µM

Question: And the GI50 [41]?
Answer: 10.2 µM and 2.24 µM

Question: And the TGI [41]?
Answer: 22 µM and 16.9 µM

Question: What about the GI50 [42] of the same compound?
Answer: < 0.01 µM

Question: And the TGI [42]?
Answer: 14.5 µM and 13.2 µM

Question: And the GI50 [43]?
Answer: < 0.01 µM

Question: And the TGI [43]?
Answer: 10.9 µM and 11.2 µM

Question: And the GI50 [44]?
Answer: 0.0138 µM and < 0.01 µM

Question: And the TGI [44]?
Answer: 18.3 µM and 18.1 µM

Question: And the GI50 [45]?
Answer: < 0.01 µM

Question: And the TGI [45]?
Answer: 12.7 µM and 11.5 µM

Question: What about the GI50 [46] of the same compound?
Answer: < 0.01 µM

Question: What about the TGI [46] of the same compound?
Answer: 16 µM and 15.9 µM

Question: And the GI50 [47]?
Answer: < 0.01 µM

Question: And the TGI [47]?
Answer: 10.2 µM

Question: What about the GI50 [48] of the same compound?
Answer: < 0.01 µM

Question: And the TGI [48]?
Answer: < 0.01 µM

Question: And the GI50 [49]?
Answer: < 0.01 µM

Question: And the TGI [49]?
Answer: 11.7 µM

Question: And the GI50 [50]?
Answer: < 0.01 µM

Question: What about the TGI [50] of the same compound?
Answer: < 0.01 µM

Question: And the GI50 [51]?
Answer: < 0.01 µM

Question: And the TGI [51]?
Answer: < 0.01 µM

Question: What about the GI50 [52] of the same compound?
Answer: < 0.01 µM

Question: What about the TGI [52] of the same compound?
Answer: < 0.01 µM

Question: And the GI50 [53]?
Answer: < 0.01 µM

Question: What about the TGI [53] of the same compound?
Answer: < 0.01 µM

Question: And the GI50 [54]?
Answer: < 0.01 µM

Question: And the TGI [54]?
Answer: 18.6 µM and 18.7 µM

Question: Which results are given for `Nc1ncn(C2CC(O)C(CO)O2)c(=O)n1` (configuration not stated)?
Answer: GI50 [1]: > 32.9 µM; GI50 [7]: 7.84 µM; GI50 [9]: 0.629 µM; GI50 [11]: < 0.0183 µM; TGI [11]: 0.0532 µM; GI50 [12]: 0.705 µM; GI50 [55]: 0.706 µM; GI50 [19]: 0.0397 µM; GI50 [29]: 0.225 µM; GI50 [36]: 1.98 µM; GI50 [56]: 1.28 µM; GI50 [48]: 2.92 µM; GI50 [49]: > 31.2 µM; GI50 [53]: 65.6 µM
